Source: article PMC9250534, “Synthesis and direct assay of large macrocycle diversities by combinatorial late-stage modification at picomole scale” (Nature Communications, 2022)
Numbered stars: 1 amine (or outer) side, 2 acyl side, 3 side chain; on linkers, the order of the positions; unused ones are H or OH. Bridge positions count the residues as written; N and C are the ends. Square brackets hold non-standard residues; d marks the D form. Peptide text beside a SMILES is read from it. * marks the point of attachment. 1,2,3Thiadiazole5CO(4-Me) = Cc1nnsc1C(=O)*; Cysteamide = C(CS[*:3])N[*:1]; 4Amb = NCc1ccc(C(=O)O)cc1; Isovaleryl = CC(C)CC(=O)*; Orn = NCCC[C@H](N)C(=O)O; Bz = O=C(c1ccccc1)*; βAla = NCCC(=O)O; Mpa = O=C(O)CCS

Molecular target: T1, thrombin (Homo sapiens, UniProt P00734)
T1 construct: consists of two polypeptide chains of 36 (light chain) and 259 amino acid
Assay: Thrombin inhibition screen of crude macrocycle reactions (residual thrombin activity, fluorogenic substrate Z-Gly-Gly-Arg-AMC)
Format: biochemical
Settings: 10 µM macrocycle concentration; crude reactions, Library 1a-l; scaffold AA1-AA2-AA3 combined with 1-16 or '-'
How it was run: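 Each crude macrocycle (10 μM) was preincubated 10 min at room temperature with thrombin (2 nM final) in Tris-Cl pH 7.4 containing NaCl, MgCl2, CaCl2, 0.1% BSA, 0.01% Triton X-100 and 0.6% DMSO. Z-Gly-Gly-Arg-AMC (50 μM final) was then added. Inhibition came from fluorescence slopes relative to DMSO-only controls.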

Row | percent residual thrombin activity | Structure (SMILES)
1 | 114.755% | NC(=O)CC[C@@H]1NC(=O)c2ccc(cc2)CNC(=O)[C@H](CCCNC(=O)c2c[nH]c(=O)[nH]c2=O)NC(=O)CCSSCCNC1=O [D2-B3-Q/11]
2 | 110.86% | CC(C)CC(=O)NCCC[C@@H]1NC(=O)CCSSCCNC(=O)[C@H](C(C)C)NC(=O)[C@H]2CCCN(C2)C1=O [D2-B4-V/8]
3 | 108.833% | COc1ccc(C(=O)NCCC[C@@H]2NC(=O)CCSSCCNC(=O)[C@H](C(C)C)NC(=O)[C@H]3CCCN(C3)C2=O)cn1 [D2-B4-V/10]
4 | 112.633% | CC(C)[C@@H]1NC(=O)[C@H]2CCCN(C2)C(=O)[C@H](CCCNC(=O)COc2ccccc2)NC(=O)CCSSCCNC1=O [D2-B4-V/13]
5 | 102.581% | CC(C)[C@@H]1NC(=O)[C@H]2CCCN(C2)C(=O)[C@H](CCCNC(=O)c2ccc(Cl)s2)NC(=O)CCSSCCNC1=O [D2-B4-V/14]
6 | 109.579% | O=C1CCSSCCNC(=O)[C@@H](Cc2ccccc2)NC(=O)[C@H]2CCCN(C2)C(=O)[C@H](CCCNC(=O)c2c[nH]c(=O)cn2)N1 [D2-B4-f/9]
7 | 107.675% | COc1ccc(C(=O)NCCC[C@@H]2NC(=O)CCSSCCNC(=O)[C@@H](Cc3ccccc3)NC(=O)[C@H]3CCCN(C3)C2=O)cn1 [D2-B4-f/10]
8 | 82.899% | O=C1CCSSCCNC(=O)[C@@H](Cc2ccccc2)NC(=O)[C@H]2CCCN(C2)C(=O)[C@H](CCCNC(=O)c2ccc(Cl)s2)N1 [D2-B4-f/14]
9 | 99.7053% | Cc1cc(C(=O)NCCC[C@@H]2NC(=O)CCSSCCNC(=O)[C@H](Cc3cnc[nH]3)NC(=O)c3cccc(c3)CNC2=O)no1 [D2-B5-H/3]
10 | 99.4462% | O=C(Cc1c[nH]c2ccccc12)NCCC[C@@H]1NC(=O)CCSSCCNC(=O)[C@H](Cc2c[nH]cn2)NC(=O)c2cccc(c2)CNC1=O [D2-B5-H/12]
11 | 105.187% | O=C(COc1ccccc1)NCCC[C@@H]1NC(=O)CCSSCCNC(=O)[C@H](Cc2cnc[nH]2)NC(=O)c2cccc(c2)CNC1=O [D2-B5-H/13]
12 | 105.304% | Cc1nnsc1C(=O)NCCC[C@@H]1NC(=O)CCSSCCNC(=O)[C@H](Cc2c[nH]cn2)NC(=O)c2cccc(c2)CNC1=O [D2-B5-H/15]
13 | 101.891% | O=C1CCSSCCNC(=O)[C@H](Cc2cnc[nH]2)NC(=O)c2cccc(c2)CNC(=O)[C@H](CCCNC(=O)c2ccco2)N1 [D2-B5-H/16]
14 | 100.592% | CC(C)CC(=O)NCCC[C@@H]1NC(=O)CCSSCCNC(=O)[C@H](Cc2ccc(O)cc2)NC(=O)c2cccc(c2)CNC1=O [D2-B5-Y/8]
15 | 96.9489% | COc1ccc(C(=O)NCCC[C@@H]2NC(=O)CCSSCCNC(=O)[C@H](Cc3ccc(O)cc3)NC(=O)c3cccc(c3)CNC2=O)cn1 [D2-B5-Y/10]
16 | 99.266% | O=C(Cc1c[nH]c2ccccc12)NCCC[C@@H]1NC(=O)CCSSCCNC(=O)[C@H](Cc2ccc(O)cc2)NC(=O)c2cccc(c2)CNC1=O [D2-B5-Y/12]
17 | 78.2447% | O=C1CCSSCCNC(=O)[C@H](Cc2ccc(O)cc2)NC(=O)c2cccc(c2)CNC(=O)[C@H](CCCNC(=O)c2ccc(Cl)s2)N1 [D2-B5-Y/14]
18 | 91.9104% | Cc1nnsc1C(=O)NCCC[C@@H]1NC(=O)CCSSCCNC(=O)[C@H](Cc2ccc(O)cc2)NC(=O)c2cccc(c2)CNC1=O [D2-B5-Y/15]
19 | 100.852% | O=C1CCSSCCNC(=O)[C@H](Cc2ccc(O)cc2)NC(=O)c2cccc(c2)CNC(=O)[C@H](CCCNC(=O)c2ccco2)N1 [D2-B5-Y/16]

Row | percent residual thrombin activity | Structure (SMILES)
20 | 110.083% | NCCC[C@@H]1NC(=O)CCSSCCNC(=O)[C@H](Cc2ccc(O)cc2)NC(=O)c2cccc(c2)CNC1=O [D2-B5-Y/-]
21 | 108.83% | CC(C)[C@H]1NC(=O)c2cccc(c2)CNC(=O)[C@H](CCCNC(=O)c2c[nH]c(=O)[nH]c2=O)NC(=O)CCSSCCNC1=O [D2-B5-v/11]
22 | 98.5757% | CC(C)[C@H]1NC(=O)c2cccc(c2)CNC(=O)[C@H](CCCNC(=O)c2ccc(Cl)s2)NC(=O)CCSSCCNC1=O [D2-B5-v/14]
23 | 103.718% | CC(C)[C@H]1NC(=O)c2cccc(c2)CNC(=O)[C@H](CCCNC(=O)c2ccco2)NC(=O)CCSSCCNC1=O [D2-B5-v/16]
24 | 108.604% | CC[C@H](C)[C@@H]1NC(=O)[C@H](CCCNC(=O)c2snnc2C)NC(=O)CCSSCCNC(=O)[C@@H]2CCCN2C1=O [D2-I-B1/15] ([Mpa][Orn](1,2,3Thiadiazole5CO(4-Me))IP-Cysteamide; disulfide 1-C)
25 | 109.798% | CC[C@H](C)[C@@H]1NC(=O)[C@H](CCCNC(=O)c2ccccc2)NC(=O)CCSSCCNC(=O)CCNC1=O [D2-I-B2/1] ([Mpa][Orn](Bz)I[βAla]-Cysteamide; disulfide 1-C)
26 | 113.295% | CC[C@H](C)[C@@H]1NC(=O)[C@H](CCCNC(=O)c2cnccn2)NC(=O)CCSSCCNC(=O)CCNC1=O [D2-I-B2/2]
27 | 110.049% | CC[C@H](C)[C@@H]1NC(=O)[C@H](CCCNC(=O)CC(C)C)NC(=O)CCSSCCNC(=O)CCNC1=O [D2-I-B2/8] ([Mpa][Orn](Isovaleryl)I[βAla]-Cysteamide; disulfide 1-C)
28 | 114.645% | CC[C@H](C)[C@@H]1NC(=O)[C@H](CCCNC(=O)COc2ccccc2)NC(=O)CCSSCCNC(=O)CCNC1=O [D2-I-B2/13]
29 | 94.0704% | CC[C@H](C)[C@@H]1NC(=O)[C@H](CCCNC(=O)c2ccc(Cl)s2)NC(=O)CCSSCCNC(=O)CCNC1=O [D2-I-B2/14]
30 | 115.288% | O=C1CCNC(=O)[C@H](CO)NC(=O)[C@H](CCCNC(=O)c2cnccn2)NC(=O)CCSSCCN1 [D2-S-B2/2]
31 | 107.459% | COc1ccc(C(=O)NCCC[C@@H]2NC(=O)CCSSCCNC(=O)CCNC(=O)[C@H](CO)NC2=O)cn1 [D2-S-B2/10]
32 | 110.146% | O=C1CCNC(=O)[C@H](CO)NC(=O)[C@H](CCCNC(=O)Cc2c[nH]c3ccccc23)NC(=O)CCSSCCN1 [D2-S-B2/12]
33 | 105.361% | O=C1CCNC(=O)[C@H](CO)NC(=O)[C@H](CCCNC(=O)c2ccc(Cl)s2)NC(=O)CCSSCCN1 [D2-S-B2/14]
34 | 105.41% | O=C1CCSSCCNC(=O)c2ccc(cc2)CNC(=O)[C@H](Cc2c[nH]c3ccccc23)NC(=O)[C@H](CCCNC(=O)c2ccccc2)N1 [D2-W-B3/1] ([Mpa][Orn](Bz)W[4Amb]-Cysteamide; disulfide 1-C)
35 | 111.429% | O=C1CCSSCCNC(=O)c2ccc(cc2)CNC(=O)[C@H](Cc2c[nH]c3ccccc23)NC(=O)[C@H](CCCNC(=O)c2c[nH]c(=O)cn2)N1 [D2-W-B3/9]
36 | 121.031% | O=C1CCSSCCNC(=O)c2ccc(cc2)CNC(=O)[C@H](Cc2c[nH]c3ccccc23)NC(=O)[C@H](CCCNC(=O)c2c[nH]c(=O)[nH]c2=O)N1 [D2-W-B3/11]
37 | 112.189% | O=C(Cc1c[nH]c2ccccc12)NCCC[C@@H]1NC(=O)CCSSCCNC(=O)c2ccc(cc2)CNC(=O)[C@H](Cc2c[nH]c3ccccc23)NC1=O [D2-W-B3/12]
38 | 117.613% | O=C(COc1ccccc1)NCCC[C@@H]1NC(=O)CCSSCCNC(=O)c2ccc(cc2)CNC(=O)[C@H](Cc2c[nH]c3ccccc23)NC1=O [D2-W-B3/13]
